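Interpolation was linear, between the two tested concentrations surrounding the appropriate level; five concentrations were tested over 48 hours in 96-well plates. At the GI50, growth is halved. TGI is the concentration that stops growth completely.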
Assays:
Test in all cases: NCI anticancer screen, dose series, 48 h; in the data active = GI50 below about 0.43 µM; inactive = the rest
HOP-92 NSCLC = system: HOP-92 NSCLC
SN12C renal = system: SN12C renal
UACC-257 melanoma = system: UACC-257 melanoma
OVCAR-8 ovarian = system: OVCAR-8 ovarian
HL-60(TB) leukemia = system: HL-60(TB) leukemia
SK-OV-3 ovarian = system: SK-OV-3 ovarian
OVCAR-3 ovarian = system: OVCAR-3 ovarian
RPMI-8226 leukemia = system: RPMI-8226 leukemia
OVCAR-4 ovarian = system: OVCAR-4 ovarian
IGROV1 ovarian = system: IGROV1 ovarian
M14 melanoma = system: M14 melanoma
HS 578T breast = system: HS 578T breast
NCI-H23 lung = system: NCI-H23 lung
SR leukemia = system: SR leukemia
SW-620 colon = system: SW-620 colon
TK-10 renal = system: TK-10 renal
HCT-15 colon = system: HCT-15 colon
DU-145 prostate = system: DU-145 prostate
HT29 colon = system: HT29 colon
SF-539 CNS = system: SF-539 CNS
SK-MEL-2 melanoma = system: SK-MEL-2 melanoma
MDA-MB-435 = system: MDA-MB-435
SNB-19 CNS = system: SNB-19 CNS
OVCAR-5 ovarian = system: OVCAR-5 ovarian
NCI-H226 lung = system: NCI-H226 lung
NCI-H460 lung = system: NCI-H460 lung
SNB-75 CNS = system: SNB-75 CNS
HOP-62 NSCLC = system: HOP-62 NSCLC
SF-268 CNS = system: SF-268 CNS
HCC-2998 colon = system: HCC-2998 colon
HCT-116 colon = system: HCT-116 colon
UACC-62 melanoma = system: UACC-62 melanoma
MDA-MB-231 breast = system: MDA-MB-231 breast
LOX IMVI melanoma = system: LOX IMVI melanoma
CAKI-1 renal = system: CAKI-1 renal
PC-3 prostate = system: PC-3 prostate
SK-MEL-28 melanoma = system: SK-MEL-28 melanoma
MCF7 breast = system: MCF7 breast
MOLT-4 leukemia = system: MOLT-4 leukemia
ACHN renal = system: ACHN renal
K-562 leukemia = system: K-562 leukemia
COLO 205 colon = system: COLO 205 colon
786-0 renal = system: 786-0 renal
MALME-3M melanoma = system: MALME-3M melanoma
BT-549 breast = system: BT-549 breast
A498 renal = system: A498 renal
SF-295 CNS = system: SF-295 CNS
NCI/ADR-RES ovarian = system: NCI/ADR-RES ovarian
A549 NSCLC = system: A549 NSCLC
RXF 393 renal = system: RXF 393 renal
UO-31 renal = system: UO-31 renal
U251 CNS = system: U251 CNS
CCRF-CEM leukemia = system: CCRF-CEM leukemia
KM12 colon = system: KM12 colon
NCI-H522 lung = system: NCI-H522 lung

Cc1cc(C)c(C#N)c(SCC(=O)c2sc3c(C#N)c(C)cc(C)[n+]3c2[O-])n1
538 nM: TGI (MDA-MB-435)
inactive: GI50 (HOP-92 NSCLC) 514 nM | GI50 (SN12C renal) 534 nM | GI50 (UACC-257 melanoma) 531 nM | GI50 (OVCAR-8 ovarian) 513 nM | GI50 (SK-OV-3 ovarian) 678 nM | GI50 (RPMI-8226 leukemia) 491 nM | GI50 (OVCAR-4 ovarian) 2240 nM | GI50 (IGROV1 ovarian) 1100 nM | GI50 (NCI-H23 lung) 697 nM | GI50 (TK-10 renal) 1500 nM | GI50 (DU-145 prostate) 472 nM | GI50 (SK-MEL-2 melanoma) 624 nM | GI50 (SNB-19 CNS) 504 nM | GI50 (OVCAR-5 ovarian) 607 nM | GI50 (NCI-H226 lung) 1330 nM | GI50 (HOP-62 NSCLC) 4170 nM | GI50 (SF-268 CNS) 1130 nM | GI50 (HCC-2998 colon) 867 nM | GI50 (UACC-62 melanoma) 559 nM | GI50 (MDA-MB-231 breast) 890 nM | GI50 (LOX IMVI melanoma) 750 nM | GI50 (CAKI-1 renal) 617 nM | GI50 (PC-3 prostate) 436 nM | GI50 (SK-MEL-28 melanoma) 1410 nM | GI50 (MOLT-4 leukemia) 596 nM | GI50 (ACHN renal) 725 nM | GI50 (786-0 renal) 692 nM | GI50 (MALME-3M melanoma) 4240 nM | GI50 (BT-549 breast) 859 nM | GI50 (A549 NSCLC) 474 nM | GI50 (UO-31 renal) 1140 nM
1760 nM: TGI (HT29 colon)
692 nM: TGI (NCI-H522 lung)
> 50700 nM: TGI (HOP-92 NSCLC)
2070 nM: TGI (A498 renal)
501 nM: TGI (SF-539 CNS)
777 nM: TGI (RXF 393 renal)
> 52600 nM: TGI (786-0 renal)
active: GI50 (HL-60(TB) leukemia) 277 nM | GI50 (OVCAR-3 ovarian) 340 nM | GI50 (M14 melanoma) 309 nM | GI50 (HS 578T breast) 335 nM | GI50 (SR leukemia) 228 nM | GI50 (SW-620 colon) 340 nM | GI50 (HCT-15 colon) 242 nM | GI50 (HT29 colon) 329 nM | GI50 (SF-539 CNS) 88.1 nM | GI50 (MDA-MB-435) 97.9 nM | GI50 (NCI-H460 lung) 362 nM | GI50 (SNB-75 CNS) 336 nM | GI50 (HCT-116 colon) 367 nM | GI50 (MCF7 breast) 166 nM | GI50 (K-562 leukemia) 376 nM | GI50 (COLO 205 colon) 383 nM | GI50 (A498 renal) 135 nM | GI50 (SF-295 CNS) 307 nM | GI50 (NCI/ADR-RES ovarian) 366 nM | GI50 (RXF 393 renal) 238 nM | GI50 (U251 CNS) 374 nM | GI50 (CCRF-CEM leukemia) 333 nM | GI50 (KM12 colon) 401 nM | GI50 (NCI-H522 lung) 244 nM
6250 nM: TGI (COLO 205 colon)
892 nM: TGI (HL-60(TB) leukemia)
1080 nM: TGI (OVCAR-3 ovarian)
56200 nM: TGI (SK-MEL-2 melanoma)
98800 nM: TGI (U251 CNS)
> 27200 nM: TGI (SNB-75 CNS)
> 29300 nM: TGI (SF-295 CNS)
17800 nM: TGI (NCI/ADR-RES ovarian)
> 100000 nM: TGI (SN12C renal) | TGI (UACC-257 melanoma) | TGI (OVCAR-8 ovarian) | TGI (SK-OV-3 ovarian) | TGI (RPMI-8226 leukemia) | TGI (OVCAR-4 ovarian) | TGI (IGROV1 ovarian) | TGI (HS 578T breast) | TGI (NCI-H23 lung) | TGI (SR leukemia) | TGI (SW-620 colon) | TGI (TK-10 renal) | TGI (HCT-15 colon) | TGI (SNB-19 CNS) | TGI (OVCAR-5 ovarian) | TGI (NCI-H226 lung) | TGI (NCI-H460 lung) | TGI (HOP-62 NSCLC) | TGI (SF-268 CNS) | TGI (HCC-2998 colon) | TGI (HCT-116 colon) | TGI (UACC-62 melanoma) | TGI (MDA-MB-231 breast) | TGI (LOX IMVI melanoma) | TGI (CAKI-1 renal) | TGI (PC-3 prostate) | TGI (SK-MEL-28 melanoma) | TGI (MCF7 breast) | TGI (MOLT-4 leukemia) | TGI (ACHN renal) | TGI (K-562 leukemia) | TGI (MALME-3M melanoma) | TGI (BT-549 breast) | TGI (A549 NSCLC) | TGI (UO-31 renal) | TGI (CCRF-CEM leukemia) | TGI (KM12 colon)

Source: PubChem BioAssay (NCI)
